# Measured values taken from ChEMBL document CHEMBL3044761, “Lethal Activity of a Trehalase Inhibitor, Validoxylamine A, against Mamestra brassicae and Spodoptera litura” (J Pestic Sci, 1994).
# Legend:
# Mamestra brassicae [1] = assay: Insecticidal activity against last-instar Mamestra brassicae larvae assessed as mortality; format: functional
# Spodoptera litura [2] = assay: Insecticidal activity against last-instar Spodoptera litura larvae assessed as larval pupal intermediate at 50 ug/larvae topical application (reference value: […]); format: functional
# Spodoptera litura [3] = assay: Insecticidal activity against last-instar Spodoptera litura larvae assessed as larval pupal intermediate injected at 0.4 ug/larvae (reference value: […]); format: functional
# Spodoptera litura [4] = assay: Insecticidal activity against last-instar Spodoptera litura larvae assessed as partial pupation injected at 2 ug/larvae (reference value: 100%); format: functional
# Spodoptera litura [5] = assay: Insecticidal activity against last-instar Spodoptera litura larvae assessed as wing pad separation at 50 ug/larvae topical application (reference value: 100%); format: functional
# Spodoptera litura [6] = assay: Insecticidal activity against last-instar Spodoptera litura larvae assessed as wing pad separation injected at 2 ug/larvae (reference value: 100%); format: functional
# Spodoptera litura [7] = assay: Insecticidal activity against last-instar Spodoptera litura larvae assessed as normal pupae at 50 ug/larvae topical application (reference value: 100%); format: functional
# Spodoptera litura [8] = assay: Insecticidal activity against last-instar Spodoptera litura larvae assessed as normal pupae injected at 50 ug/larvae (reference value: 100%); format: functional
# Chitinase A1 = molecular target: T1, Chitinase A1 (Thanatephorus cucumeris (strain AG1-IB / isolate 7/3/14) (Lettucebottom rot fungus) (Rhizoctonia solani), UniProt M5BZV0); assay: Inhibition of Rhizoctonia solani chitinase; conditions: read-out: I50
# T1 sequence (M5BZV0 whole entry): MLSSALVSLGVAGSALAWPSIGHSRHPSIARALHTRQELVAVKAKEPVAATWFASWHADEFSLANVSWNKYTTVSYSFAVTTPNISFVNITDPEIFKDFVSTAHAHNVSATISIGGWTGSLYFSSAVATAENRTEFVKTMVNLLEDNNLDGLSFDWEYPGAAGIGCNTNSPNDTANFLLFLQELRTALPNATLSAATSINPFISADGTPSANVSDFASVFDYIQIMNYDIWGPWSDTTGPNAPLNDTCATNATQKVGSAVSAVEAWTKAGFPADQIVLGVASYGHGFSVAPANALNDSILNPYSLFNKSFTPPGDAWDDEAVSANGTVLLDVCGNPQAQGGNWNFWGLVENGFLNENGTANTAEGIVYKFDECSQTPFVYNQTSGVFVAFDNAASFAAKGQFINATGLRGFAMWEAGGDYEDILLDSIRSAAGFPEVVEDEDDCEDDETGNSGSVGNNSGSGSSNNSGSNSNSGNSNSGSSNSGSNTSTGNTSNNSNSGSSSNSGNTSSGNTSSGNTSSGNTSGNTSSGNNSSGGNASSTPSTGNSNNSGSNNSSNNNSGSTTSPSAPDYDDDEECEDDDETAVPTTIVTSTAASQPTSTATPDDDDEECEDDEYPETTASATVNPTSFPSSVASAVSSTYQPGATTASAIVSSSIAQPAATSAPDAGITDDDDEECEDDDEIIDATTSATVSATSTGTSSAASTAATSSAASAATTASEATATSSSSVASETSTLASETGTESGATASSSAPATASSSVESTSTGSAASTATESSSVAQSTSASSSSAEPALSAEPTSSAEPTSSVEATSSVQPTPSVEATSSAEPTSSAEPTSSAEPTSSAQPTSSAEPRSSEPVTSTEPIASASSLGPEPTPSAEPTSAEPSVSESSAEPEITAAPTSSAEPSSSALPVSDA
# Mamestra brassicae [9] = assay: Insecticidal activity against last-instar Mamestra brassicae larvae assessed as partial pupation injected at 50 ug/larvae (reference value: 10%); format: functional
# Mamestra brassicae [10] = assay: Insecticidal activity against last-instar Mamestra brassicae larvae assessed as wing pad separation at 50 ug/larvae oral administration (reference value: 0%); format: functional
# Mamestra brassicae [11] = assay: Insecticidal activity against last-instar Mamestra brassicae larvae assessed as wing pad separation injected at 50 ug/larvae (reference value: 0%); format: functional
# Mamestra brassicae [12] = assay: Insecticidal activity against last-instar Mamestra brassicae larvae assessed as normal pupae at 50 ug/larvae oral administration (reference value: 90%); format: functional
# Mamestra brassicae [13] = assay: Insecticidal activity against last-instar Mamestra brassicae larvae assessed as normal pupae at 50 ug/larvae topical application (reference value: 90%); format: functional
# Spodoptera litura [14] = assay: Insecticidal activity against last-instar Spodoptera litura larvae assessed as normal pupae injected at 0.4 ug/larvae (reference value: 100%); format: functional
# Mamestra brassicae [15] = assay: Insecticidal activity against last-instar Mamestra brassicae larvae assessed as larval-pupal intermediate at 50 ug/larvae oral administration (reference value: 0%); format: functional
# Mamestra brassicae [16] = assay: Insecticidal activity against last-instar Mamestra brassicae larvae assessed as partial pupation at 50 ug/larvae topical application (reference value: 10%); format: functional
structure (smiles),measurement,setting,value
OCC1=C[C@H](N[C@H]2C[C@H](CO)[C@@H](O)[C@H](O)[C@H]2O)[C@H](O)[C@@H](O)[C@@H]1O [VALIDOXYLAMINE A],LD50,Mamestra brassicae [1],<1 µg
same,Activity,Spodoptera litura [2],5%
same,Activity,Spodoptera litura [3],0%
same,Activity,Spodoptera litura [4],20%
same,Activity,Spodoptera litura [5],5%
same,Activity,Spodoptera litura [6],5%
same,Activity,Spodoptera litura [7],85%
same,Activity,Spodoptera litura [8],0%
same,IC50,Chitinase A1,> 1 mM
same,Activity,Mamestra brassicae [9],0%
same,Activity,Mamestra brassicae [10],10%
same,Activity,Mamestra brassicae [11],0%
same,Activity,Mamestra brassicae [12],90%
same,Activity,Mamestra brassicae [13],60%
same,Activity,Spodoptera litura [14],85%
same,Activity,Mamestra brassicae [15],0%
same,Activity,Mamestra brassicae [16],40%
